Here are results for 1 compound from patent US20220411448A1, “CHROMENE-4-ONE DERIVATIVES AS BRAIN-DERIVED NEUROTROPHIC FACTOR (BDNF) MIMETICS” (FLORATEK PHARMA AG, priority 2019, published 2022).

In one assay the test system is Arc, cFos, and Zif268. Kind of assay: Quantitative PCR of immediate-early genes linked to neuronal plasticity. It counts as cell-based, mouse. The settings on record: 1 μM and 10 μM, 1 h and 2 h treatment. How it is done: The effect of Compound A or derivative thereof on the mRNA expression of genes related to plasticity (Arc, cFos, and Zif268) was determined as described. Cox (cytochrome oxidase) was used to evaluate if the derivative changes expression of mitochondrial genes.
Determination of gene expression was performed as previously described [Yang J, et al, Lactate promotes plasticity gene expression by potentiating NMDA signalling in neurons. Proc Natl Acad Sci USA. 2014. 111(33):12228-33]. Total RNA was isolated from cultured cells using Nucleospin RNA II kit (Macherey-Nagel) according to the manufacturer's instructions. The first strand of cDNA was synthesized from 100 ng of total RNA (60 min at 37° C. followed by 5 min at 95° C.) using a high-capacity RNA to cDNA reverse transcription system (Applied Biosystems). One-twentieth of the resulting cDNA was amplified by quantitative PCR (qPCR) with an ABI Prism 7900 system (Applied Biosystems). The PCR mix was composed of 6 ng of cDNA, 300 nM of forward and reverse primers in 10 μL of ix SYBR-Green PCR MasterMix (Applied Biosystems). Primer sequences were designed using Primer Express 3.0 software (Applied Biosystems) and oligonucleotides were synthesized by Microsynth.

The test system of another assay is Astrocytes. Kind of assay: Cellular ATP/ADP ratio (luciferase, CellTiter-Glo). Type of assay: cell-based, mouse. How it is done: ATP content was measured enzymatically as previously described [Lambert H P et al, Control of Mitochondrial pH by Uncoupling Protein 4 in Astrocytes Promotes Neuronal Survival, 2014 The Journal of Biological Chemistry 289, 31014-31028] using a luciferase assay, the CellTiter-Glo Luminescent cell viability assay (Promega). Astrocytes grown on multiplate of 48 wells were rinsed and incubated 1 h at 37° C. in an atmosphere containing 5% CO2 and 95% air in DMEM (D5030; Sigma-Aldrich) containing 44 mm NaHCO3 and 2 mm glucose. At the end of the incubation, medium was removed, and 200 μl of Tricine buffer solution (40 mm Tricine, 3 mm EDTA, 85 mm NaCl, 3.6 mm KCl, 100 mm NaF, and 0.1% saponin (84510; Sigma-Aldrich), pH 7.4) was put in each well. Cells were lysed by saponin effect and by pipetting. Each sample was divided for ATP measure and for ATP+ADP measure. 90-μl aliquots were distributed in a black-walled 96-well type microplates (PerkinElmer Life Sciences). […] Finally, 100 μl of CellTiter-Glo reagent (G7571; Promega) was added, and luminescence was immediately detected with a luminometer (Safire 2; Tecan). Luminescence was measured in a kinetic way determined by 20 readings at intervals of 1 min. Luminescence read at the plateau were taken to calculate the ATP/ADP ratio. […]

In the next assay the test system is IL-6. As to the kind of experiment: LPS stimulation of BV-2 microglia: IL-6. The settings on record: between 0.3 and 3 μM, BV2, LPS 500 ng/ml, 24 h. It counts as cell-based, murine. The procedure: The murine microglial cell line BV-2 was grown in DMEM medium supplemented with 10% FCS, 1% penicillin/streptomycin and 2 mM L-glutamine (culture medium). For LPS stimulation assay, 10000 BV-2 cells per well (uncoated 96 well plates) were plated and after 24 hours, medium was changed to serum-free treatment medium (DMEM, 2 mM L-glutamine) and cells were maintained in treatment medium for the remaining culture period. 1 h after changing cells to treatment medium, the test items were added 1 hour before LPS stimulation (Sigma-Aldrich; L6529; 1 mg/ml stock in ddH2O, final concentration in well: 500 ng/ml (dilutions in medium)). Cells treated with vehicle, cells treated with LPS alone, as well as cells treated with LPS plus reference dexamethasone at 10 μM item served as controls.
Following 24 h of stimulation, cell supernatants were collected for the NO, and cytokine measurements. Levels of 2 cytokines (TNF-α, IL-6) were measured by an immunosorbent assay (U-PLEX Custom […] Cytokine, Mesoscale Discovery) according to the instructions of the manufacturer and evaluated in comparison to calibration curves provided in the kit. […] Absorbance was measured at 570 nm. Nitrosative stress was evaluated in the study samples in comparison to a NaNO2 standard curve. […]

In assay [1] the test system is primary brain cell cultures. As to the kind of experiment: NAD/NADH cycling assay. It counts as cell-based, mouse. As to conditions: after 30 min in the presence of the compound. How it is done: Cycling assays for nicotinamide adenine dinucleotides was performed as described [Yang J, et al, Lactate promotes plasticity gene expression by potentiating NMDA signaling in neurons. Proc Natl Acad Sci USA. 2014. 111(33):12228-33]. Briefly, cells were rinsed two times with ice-cold PBS, harvested in 400 μL ice-cold carbonate-bicarbonate buffer (100 mM Na2CO3 and 20 mM NaHCO3 containing 10 mM nicotinamide to inhibit NADase), and frozen at −80° C. Cell membranes were lysed by heat shock in a 37° C. water bath and immediately chilled on ice. Extracts were centrifuged at 12,000×g for 30 min at 4° C. and half of the supernatant was heated at 60° C. for 30 min to denature NAD. Twenty-five microliters of the heated extract (containing NADH only), 100 μL of the unheated extract (containing NAD and NADH), and 50 μL of standards of known NADH (Roche) concentrations (ranging from 0.0625 to 1 μM) dissolved in carbonate bicarbonate buffer were loaded onto a 96-well microplate along with blanks (carbonate-bicarbonate buffer). Volumes were adjusted to 100 μL with carbonate-bicarbonate buffer and 150 μL of a reaction buffer was added into each well. […] The absorbance was followed spectrophotometrically at 560 nm every 15 s over a 5-min period (Safire 2; Tecan). Blank values were subtracted from all samples and NAD amounts were calculated by subtracting NADH values from total NAD+NADH values.

`O=c1cc(-c2ccc(CCCC[P+](c3ccccc3)(c3ccccc3)c3ccccc3)cc2)oc2c(O)c(O)ccc12` [SND118, 4-[4-(7,8-dihydroxy-4-oxo-chromen-2-yl)phenyl]butyltriphenylphosphonium bromide]: the “mRNA expression of genes related to plasticity (Arc, cFos, and Zif268)” value with Arc, cFos, and Zif268 is given as “increased”. For the same compound, the “production of ATP” value in the assay with Astrocytes (100 nM, 30 min) is listed as “increased production of ATP”. The ATP/ADP ratio entry in the assay on Astrocytes (various doses) is “trended higher at most doses”. In the assay with IL-6, the “level of IL-6 in response to LPS stimulation” value was “significantly decreased”. Further, the “production of NADH (NAD/NADH ratio)” value in assay [1] is “increased production of ATP and NADH”.
